Test results reported in patent US20190211099A1, “METHODS AND COMPOSITIONS FOR TREATING CANCER WITH SIGLEC-9 ACTIVITY MODULATORS” (KING'S COLLEGE LONDON, priority 2016, published 2019).

What was measured:
Assay type in all cases: cell-based, human
[1] = system: M-CSF macrophages differentiated with LPS and IFNγ; assay: Differentiation of monocytes into M(LPS+IFNγ) macrophages: CD86 and IL-12; conditions: blocking antibodies
Procedure: Both the cell phenotype staining and neutralization studies described in the Examples were performed using the following antibodies (all anti-human): Siglec-9 (Biotechne; 191240), Siglec-9 FITC (Biotechne; 191240), Siglec-3 (Biotechne; 6C5/2), Siglec-7 (Biotechne; AF1138), Siglec-3 FITC (BD; P67.6), Siglec-7 PE (Biolegend; 6-434), Siglec-10 PE (Biolegend; 5G6), Siglec-1 (abcam; 7D2), HLA-DR FITC (Beckman Coulter; IM0463U), CD16 FITC (Biolegend; B73.1), CD14 FITC (BD 555397), CD69 PE (Beckman Coulter; IM1943), CD25 FITC (ABX228FITC), CD86 PE (Beckman Coulter; IM2729U), CD40 FITC (BD 555588), CD83 PE (Beckman Coulter; IM2218), CD163 PE (Biolegend; GHI/61), CXCR1 FITC (BD Pharmongen; 551126), CD45 PC5 (Beckman Coulter; IM2653U), CD206 PE (ebioscience; 19.2), PD-L1 PE (Biolegend; 29E.2A3), CD36 (Santa Cruz; H-300), TGFbetaRII (Bio-Techne; AF-241), IL-6Rα (Tocilizumab; Roche. A generous gift from Dr. Valerie Corrigall). […] At least 1×10^4 events were evaluated using either Epics XL, (Beckman Coulter) or FACSCalibur (BD Biosciences) flow cytometers. […]
Given that IL-6 and NO are known differentiation modulators (Oosterhoff et al. (2012) ONCOIMMUNOLOGY 1: 649-658; Bogdan (2015) TREND IMMUNOL. 36: 161-178) the effects of MUC1-ST on the differentiation of monocytes into macrophages was assessed. […]

[2] = system: monocyte derived dendritic cells; assay: Differentiation of monocytes into dendritic cells; conditions: 10 μg/10^6 cells anti-Siglec-9 before MUC1-ST; 10 μg/ml anti-IL-6Rα every 2 days
Procedure: To differentiate monocytes into macrophages, CD14+ cells were plated at a concentration of 1×10^6/mL in AIM V medium (Lonza) with either 50 ng/mL recombinant human M-CSF or 50 ng/mL recombinant human GM-CSF (Bio-Techne). The cytokines were added every 3 days. The cells were incubated at 37° C., 5% CO2 for 7 days to fully differentiate, before being characterized as macrophages via phenotypic flow cytometric analysis. To differentiate monocytes into dendritic cells (moDC), CD14+ cells were plated at a concentration of 1×10^6/mL in AIM V medium with 1500 U/mL recombinant human IL-4 (Bio-Techne) and 400 U/mL human GM-CSF (Bio-Techne) for 6 days to fully differentiate, before being characterized as immature DCs via phenotypic flow cytometric analysis (Epics XL, Beckman Coulter or FACSCalibur, BD Biosciences plus WinMDI or Cellquest software). MoDCs were matured using 1 μg/mL LPS for 24 hours.
In addition, the effects of MUC1-ST on the differentiation of monocytes into dendritic cells were assessed. Briefly, monocytes were treated with MUC1-ST on day 0 and differentiated into immature dendritic cells (DCs) using IL-4 (1500 U/mL) and GM-CSF (400 U/mL) in AIM-V media for 6 days. Immature DCs were matured using 1 μg/mL LPS for 24 hours. […]

CD8+ T cells = assay: Co-culture of MUC1-ST educated M-CSF macrophages with CD3/CD28 stimulated autologous T cells; conditions: antibody present
Procedure: In addition, primary monocytes were induced to differentiate to macrophages in the presence of MUC1-ST and then co-cultured for 48 hours with CD3/CD28 stimulated autologous CD8+ or CD4+ T cells. T cell proliferation and CD69/CD25 cell surface expression were measured using flow cytometry.

[3] = system: MUC1-ST educated monocytes and macrophages; assay: Secretion of PAI-1 and M-CSF from MUC1-ST educated monocytes and macrophages with PD98059 or verapamil
Procedure: ELISAs for IL-6, IL-12p70, TGF-β1, PAI-1, M-CSF, EGF, SHP2, phospho-SHP2 (Biotechne) were all carried out as per manufacturer's instructions.
To explore this, the secretion of PAI-1 and M-CSF from MUC1-ST educated monocytes and macrophages was measured following treatments with 1 μM PD98059 or 20 μM verapamil for 20 minutes at 37° C., where indicated.

monocytes from PBMCs = assay: MUC1-ST mediated TAM formation in monocytes from PBMCs, 7 day serum-free culture; conditions: PD98059 at 10 μM
Procedure: To further explore the role of MUC1-ST in inducing a TAM-like phenotype, monocytes from PBMCs were plated in serum-free medium, incubated with MUC1-ST or PBS, and cultured for 7 days.
Intracellular calcium flux can lead to activation of the MEK/ERK pathway (Christo et al. (2015) IMMUNOL. AND CELL BIOLOGY 93: 694-704). […] Furthermore, treatment with the MEK inhibitor PD98059 at 10 μM inhibited MUC1-ST mediated TAM formation in monocytes (FIGS. 12B, 12D-12E).

THP-1 cells = assay: PAI-1, M-CSF and kynurenine in supernatants of differentiated THP-1 cells; conditions: THP-1; PD98059
Procedure: THP-1 cells were cultured at a concentration of 1×10^6/mL in AIM V medium. Cells were differentiated using […] phorbol 12-myristate 13-acetate (PMA) on day 0 and 100 ng/mL LPS on day 3 in the presence or absence of 100 μg/mL MUC1-ST or MUC1-T. Cell supernatants were harvested on day 5 and PAI-I concentration measured by ELISA.
Given that IDO catalyzes the rate-limiting step in the metabolism of tryptophan, the tryptophan metabolite kynurenine was detected as follows. 604, supernatant was mixed with 304, 30% trichloroacetic acid (TCA) and incubated for 30 minutes at 50° C. The supernatant was spun at 3000×g and 50 μL was harvested and mixed with 50 μL freshly prepared Ehrlich Reagent (2% p-dimethylaminobenzaldehyde in glacial acetic acid). After 10 minutes optical density (O.D.) was measured at 492 nm, and concentrations were calculated against a kynurenine standard curve. An increase in the tryptophan metabolite kynurenine was observed (FIG. 11D).
The intracellular effects of MUC1-ST binding to Siglec-9 were further explored in the monocytic cell line, THP-1. THP-1 cells were cultured for three days at a concentration of 1×10^6/mL in AIM V medium and differentiated using […] phorbol 12-myristate 13-acetate (PMA) in the presence or absence of 100 μg/mL MUC1-ST. […] THP-1 cells were further treated with DMSO or the MEK/ERK inhibitor PD98059 at 1004, and the concentration of PAI-1, M-CSF and kynurenine in cell supernatants were measured as described above. […] This increase in concentration was blocked by the MEK/ERK inhibitor PD98059 (FIG. 4I).

allogeneic CD8+ T cells = assay: Co-culture of MUC1-ST treated macrophages with allogeneic CD8+ T cells; conditions: MEK signalling inhibited in the macrophages (FIG. 13K)
Procedure: Thereafter, the effects of MUC1-ST educated macrophages on T cell function were analyzed. Macrophages treated with MUC1-ST were co-cultured with eFluor® 670 labelled allogeneic CD8+ T cells in the presence of absence of anti-Siglec-9 antibody or isotype control. Indeed, macrophages that had been educated with MUC1-ST were decreased in their ability to stimulate the proliferation of allogeneic CD8 T cells (FIG. 11E). […] (FIG. 11F). This profile of expression and functional activity is indicative of tumor-associated macrophages (TAMs), which play a role in promoting tumor progression (Noy et al. (2014) IMMUNITY 41: 49-61; Sousa et al. (2015) BREAST CANCER RES. 17: 101; Qian et al. (2010) CELL 141: 39-45).

[4] = 20 μM verapamil, 20 minutes at 37° C.
[5] = 1 μM PD98059, 20 minutes at 37° C.

With “Tocilizumab [anti-IL-6Rα, reference compound]” the “rescue of MUC1-ST induced lowering of CD86 and IL-12” value [1] was “partially rescued”, the “reversal of the effect of MUC1-ST on differentiation of dendritic cells” value [2] was “significantly reverse” and the “reversal of the inhibition of CD8+ T cell activation” value (CD8+ T cells) was “could be reversed”.

With `COc1ccc(CCN(C)CCCC(C#N)(c2ccc(OC)c(OC)c2)C(C)C)cc1OC` (stereo not shown) [verapamil] the “secretion of M-CSF” value [3, 4] was “significantly inhibited” and the “secretion of PAI-1” value [3, 4] was “significantly inhibited”.

With `COc1cccc(-c2cc(=O)c3ccccc3o2)c1N` [PD98059, reference compound] the “MUC1-ST mediated TAM formation in monocytes” value (monocytes from PBMCs) was “inhibited”, the “MUC1-ST induced increase in PAI-1, kynurenine and M-CSF concentration” value (THP-1 cells) was “blocked” and the “secretion of M-CSF” value [3, 5] was “significantly inhibited”. For the same compound, the “secretion of PAI-1” value [3, 5] was “significantly inhibited” and the “repression of T cell proliferation by MUC1-ST treated macrophages” value (allogeneic CD8+ T cells) was “could be overcome”.
